According to article PMC12391474 (Scientific Reports, 2025):
Counter-ions that a name gives are not always drawn.

Biological target: T1, Fibrinogen (FB) (Bos taurus, UniProt P02672+P02676+P12799)
T1 sequence (P02672 20-615): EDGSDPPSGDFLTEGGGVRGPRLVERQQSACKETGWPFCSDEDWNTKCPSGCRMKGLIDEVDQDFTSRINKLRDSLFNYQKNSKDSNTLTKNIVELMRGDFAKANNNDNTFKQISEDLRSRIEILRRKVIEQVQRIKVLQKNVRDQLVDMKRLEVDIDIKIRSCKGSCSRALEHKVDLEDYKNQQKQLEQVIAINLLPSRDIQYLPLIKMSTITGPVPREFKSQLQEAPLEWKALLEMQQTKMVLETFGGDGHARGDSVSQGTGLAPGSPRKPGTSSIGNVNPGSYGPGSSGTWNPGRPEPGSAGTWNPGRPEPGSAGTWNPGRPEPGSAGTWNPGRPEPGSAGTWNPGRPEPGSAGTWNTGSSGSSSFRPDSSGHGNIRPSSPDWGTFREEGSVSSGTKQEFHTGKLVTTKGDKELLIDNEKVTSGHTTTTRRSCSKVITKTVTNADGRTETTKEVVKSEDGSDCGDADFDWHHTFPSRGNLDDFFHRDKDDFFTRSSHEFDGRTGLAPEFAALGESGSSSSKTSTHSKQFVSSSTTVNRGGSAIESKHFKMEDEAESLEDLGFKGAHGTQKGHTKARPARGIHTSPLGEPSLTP
T1 sequence (P02676 1-468): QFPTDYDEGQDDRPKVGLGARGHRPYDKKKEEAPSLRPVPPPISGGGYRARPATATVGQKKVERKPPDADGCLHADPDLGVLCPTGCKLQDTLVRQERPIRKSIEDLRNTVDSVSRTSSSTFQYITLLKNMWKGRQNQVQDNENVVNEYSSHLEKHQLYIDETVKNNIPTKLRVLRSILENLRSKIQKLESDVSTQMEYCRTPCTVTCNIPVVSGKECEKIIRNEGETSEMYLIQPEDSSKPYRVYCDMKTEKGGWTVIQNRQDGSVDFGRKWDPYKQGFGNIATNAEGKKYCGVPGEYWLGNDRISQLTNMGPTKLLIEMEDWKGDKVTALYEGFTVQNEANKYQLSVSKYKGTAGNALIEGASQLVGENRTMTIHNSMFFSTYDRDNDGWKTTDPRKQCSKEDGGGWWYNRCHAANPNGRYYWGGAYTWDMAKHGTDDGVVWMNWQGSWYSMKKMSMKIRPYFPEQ
T1 sequence (P12799 25-444): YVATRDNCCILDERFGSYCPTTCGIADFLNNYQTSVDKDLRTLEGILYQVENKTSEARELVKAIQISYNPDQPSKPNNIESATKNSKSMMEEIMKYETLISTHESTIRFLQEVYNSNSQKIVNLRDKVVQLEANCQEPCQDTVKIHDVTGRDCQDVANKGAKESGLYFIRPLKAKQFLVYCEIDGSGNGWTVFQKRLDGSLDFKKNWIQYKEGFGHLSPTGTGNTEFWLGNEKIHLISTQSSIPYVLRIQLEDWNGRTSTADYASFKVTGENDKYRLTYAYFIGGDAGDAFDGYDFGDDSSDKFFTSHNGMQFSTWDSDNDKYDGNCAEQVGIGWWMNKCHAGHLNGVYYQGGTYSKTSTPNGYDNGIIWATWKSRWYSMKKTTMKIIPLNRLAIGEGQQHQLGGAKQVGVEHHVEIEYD
Test: intrinsic fluorescence quenching titration
Type: binding

Structure (SMILES): CC(C)(C)NC[C@H](O)COc1nsnc1N1CCOCC1 [TM, Timolol maleate]
- Kd: 1650 µM
